According to US20240327381A1, “Compounds and Compositions for Selective Degradation of Engineered Proteins” (Celgene Corporation, priority 2023, published 2024):

Experiments:
Helios = target: T1, Helios (Homo sapiens, UniProt Q9UKS7); assay: Helios degradation in Jurkat/Helios/HiBit cells (Nano-Glo luminescence); format: cell-based; settings: 18 hr, read-out: Helios Jurkat Hibit IC50
T1 construct: endogenous in cells; host or cells: Jurkat cells, CRISPR/Cas9 knock-in of HiBit at the IKZF2 locus
Description: For Helios, a stable Jurkat cell line was engineered using CRISPR/Cas9 to insert an in-frame HiBit tag into the carboxy-terminal reading frame of the IKZF2 gene. The sequence of human Helios is shown below:
Test compounds were transferred to 1536 well plates using an acoustic dispenser, and Jurkat/Helios/HiBit cells in DMEM/10% FCS were plated at 10,000 cells/well in a final volume of 5 μL. Cells were incubated at 37 C, 95% RH for 18 hr. Luciferase activity was measured by adding 2 μL/well of Nano-Glo reagent (Promega), incubating at RT for 30 min, and reading luminescence on a microtiter plate reader.
(§1) To determine the EC50 value of a compound for the degradation of a given substrate (concentration of compound that achieves half the maximum degradation observed), a four-parameter logistic model (sigmoidal dose-response model) (FIT=(A+{(B−A)/1+[(C/x)D]})) where C is the inflection point (EC50), D is the […], and A and B are the low and high limits of the fit, respectively) was used. All substrate degradation curves were processed and evaluated using ActivityBase (IDBS), a data analysis software package. Ymax is the % protein degraded (Ymin=100−Ymax and is minimum percent protein remaining).

[1] = target: T2, IKZF1 ZNF2_ZNF3 Q1F degron-tagged CD19 CAR (Homo sapiens, UniProt Q13422, Q146F); assay: Degradation of Q1F degron-tagged CD19 CAR in Jurkat cells (flow cytometry of CAR levels); format: cell-based; settings: for DC50: Jurkat cells expressing CD19 CAR tagged with IKZF1 ZNF2_ZNF3 Q1F, 18 hours at 37° C., CAR levels normalized to untreated cells, read-out: Q1F Jurkat IC50; for Dmax: Ymax is the % protein degraded, Jurkat cells expressing Q1F degron-tagged CD19 CAR, 18 hours, read-out: Q1F Jurkat-YMax
T2 construct: ZNF2_ZNF3 Q1F degron (GERPFFCNQCGASFTQKGNLLRHIKLHSGEKPFKCHLCNYACRRRDALTGHLRTHS); fused on or other part: anti-CD19 scFv, CD28 transmembrane domain, 4-1BB costimulatory domain, CD3 zeta signaling domain (the CAR that carries the degron), and Nluc
From the text: Q1F degron-targeting compounds were screened in Jurkat cells engineered to express a IKZF1 ZNF2_ZNF3 Q1F. The cell line was generated with lentiviral vectors containing CD19 CARs tagged with IKZF1 ZNF2_ZNF3 QIF Nluc, which were transduced into Jurkat cells. The CD19 CAR comprised an anti-CD19 scFv, a CD28 transmembrane domain, a 4-1BB costimulatory domain, a CD3ζ signaling domain, and a ZNF2_ZNF3 Q1F degron (GERPFFCNQCGASFTQKGNLLRHIKLHSGEKPFKCHLCNYACRRRDALTGHLRTHS; SEQ ID NO: 1; Q1F substitution underlined). Transduced cells were treated with a titration of each small molecule or no drug and then incubated at 37° C. for 18 hours. Cells were washed and stained with appropriate staining reagent to measure CAR levels. The cells were incubated at 4° C. in the staining reagents for 20 mins and then washed 3 times before being read on the flow cytometer. CAR levels were normalized to cells that had not been treated with drug. EC50 and Ymin values were calculated using the resulting titration curve. This identified small molecules that potently degraded the Q1F degron-tagged CARs (Table 1).
as §1

T1 sequence (Q9UKS7 whole entry): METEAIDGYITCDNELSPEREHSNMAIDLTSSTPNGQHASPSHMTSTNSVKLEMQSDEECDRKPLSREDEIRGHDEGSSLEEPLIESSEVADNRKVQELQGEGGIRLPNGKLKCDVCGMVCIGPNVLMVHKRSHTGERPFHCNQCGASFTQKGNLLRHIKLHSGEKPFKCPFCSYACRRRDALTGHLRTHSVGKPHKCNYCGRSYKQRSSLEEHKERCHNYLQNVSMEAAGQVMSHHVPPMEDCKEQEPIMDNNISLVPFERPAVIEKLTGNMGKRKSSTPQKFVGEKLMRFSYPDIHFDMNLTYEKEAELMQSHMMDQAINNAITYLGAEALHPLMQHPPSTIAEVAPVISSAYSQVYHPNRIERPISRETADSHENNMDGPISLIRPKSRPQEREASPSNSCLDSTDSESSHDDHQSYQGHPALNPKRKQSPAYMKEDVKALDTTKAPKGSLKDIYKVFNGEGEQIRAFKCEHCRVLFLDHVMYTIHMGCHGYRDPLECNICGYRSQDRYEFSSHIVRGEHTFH
T1 sequence (Q96SW2 whole entry, further chain): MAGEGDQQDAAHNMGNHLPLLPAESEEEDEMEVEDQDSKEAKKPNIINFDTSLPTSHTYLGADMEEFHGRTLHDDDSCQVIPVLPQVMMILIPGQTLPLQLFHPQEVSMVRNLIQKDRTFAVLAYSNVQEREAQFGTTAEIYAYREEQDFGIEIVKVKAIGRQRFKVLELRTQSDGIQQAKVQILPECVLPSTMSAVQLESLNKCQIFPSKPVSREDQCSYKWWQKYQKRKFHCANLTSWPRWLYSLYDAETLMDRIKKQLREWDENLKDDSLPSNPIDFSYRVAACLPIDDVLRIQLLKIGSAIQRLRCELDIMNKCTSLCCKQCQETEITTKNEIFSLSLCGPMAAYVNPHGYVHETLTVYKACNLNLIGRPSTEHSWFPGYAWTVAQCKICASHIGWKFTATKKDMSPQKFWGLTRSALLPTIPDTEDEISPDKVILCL
T1 sequence (Q16531 whole entry partner): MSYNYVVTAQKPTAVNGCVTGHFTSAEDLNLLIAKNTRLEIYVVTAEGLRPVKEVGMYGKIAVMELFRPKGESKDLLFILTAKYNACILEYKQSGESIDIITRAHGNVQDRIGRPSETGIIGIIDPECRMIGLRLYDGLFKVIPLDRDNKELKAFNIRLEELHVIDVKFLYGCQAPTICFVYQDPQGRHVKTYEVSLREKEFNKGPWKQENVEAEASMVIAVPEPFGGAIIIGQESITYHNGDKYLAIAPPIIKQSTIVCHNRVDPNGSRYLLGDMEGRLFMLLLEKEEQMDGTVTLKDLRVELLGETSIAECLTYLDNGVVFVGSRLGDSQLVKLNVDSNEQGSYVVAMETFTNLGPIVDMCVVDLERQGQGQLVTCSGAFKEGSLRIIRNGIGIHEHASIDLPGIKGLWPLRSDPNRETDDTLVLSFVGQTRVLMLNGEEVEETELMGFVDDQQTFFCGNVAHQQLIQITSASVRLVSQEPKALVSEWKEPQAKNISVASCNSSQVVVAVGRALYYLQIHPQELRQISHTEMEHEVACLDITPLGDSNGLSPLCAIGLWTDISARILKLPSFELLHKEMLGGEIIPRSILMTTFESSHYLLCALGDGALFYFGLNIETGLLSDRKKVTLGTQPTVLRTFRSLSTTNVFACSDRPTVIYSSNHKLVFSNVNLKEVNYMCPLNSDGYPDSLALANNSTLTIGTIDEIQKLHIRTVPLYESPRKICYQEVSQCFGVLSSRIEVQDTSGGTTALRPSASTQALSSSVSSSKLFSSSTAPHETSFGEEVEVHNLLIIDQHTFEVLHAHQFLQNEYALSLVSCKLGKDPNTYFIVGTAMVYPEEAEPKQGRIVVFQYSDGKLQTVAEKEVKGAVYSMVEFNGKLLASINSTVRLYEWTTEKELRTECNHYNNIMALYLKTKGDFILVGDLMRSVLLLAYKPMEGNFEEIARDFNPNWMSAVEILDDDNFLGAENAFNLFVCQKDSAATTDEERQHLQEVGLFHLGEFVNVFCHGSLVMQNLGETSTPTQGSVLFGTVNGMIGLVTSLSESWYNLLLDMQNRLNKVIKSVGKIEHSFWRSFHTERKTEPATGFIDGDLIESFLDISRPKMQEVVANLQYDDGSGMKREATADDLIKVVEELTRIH
T2 sequence (Q13422 whole entry Q146F, the tested form may be a part): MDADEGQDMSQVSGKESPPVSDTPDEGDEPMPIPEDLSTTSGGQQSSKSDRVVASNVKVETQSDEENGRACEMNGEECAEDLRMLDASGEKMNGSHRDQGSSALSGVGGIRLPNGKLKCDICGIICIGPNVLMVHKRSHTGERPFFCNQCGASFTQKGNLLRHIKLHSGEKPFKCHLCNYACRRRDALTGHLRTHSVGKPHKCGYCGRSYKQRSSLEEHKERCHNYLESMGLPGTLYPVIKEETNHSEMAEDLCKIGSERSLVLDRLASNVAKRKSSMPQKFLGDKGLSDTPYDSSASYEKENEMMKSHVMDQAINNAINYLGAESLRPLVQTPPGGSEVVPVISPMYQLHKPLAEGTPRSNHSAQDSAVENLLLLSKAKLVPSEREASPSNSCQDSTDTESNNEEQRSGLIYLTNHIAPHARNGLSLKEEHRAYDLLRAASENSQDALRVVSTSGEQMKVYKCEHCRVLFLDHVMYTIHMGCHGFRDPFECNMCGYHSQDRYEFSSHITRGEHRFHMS

DC50 (Helios) [nM] | DC50 [1] [nM] | Dmax [1] [%] | SMILES
≥ 10000 | 0.343 | 90.6 | Cc1ccc(CN2CCC(c3c(F)cc4c(c3F)CN(C3CCC(=O)NC3=O)C4=O)CC2)cc1 (stereo not drawn) [Compound 45, 3-(4,6-difluoro-5-(1-(4-methylbenzyl)piperidin-4-yl)-1-oxoisoindolin-2-yl)piperidine-2,6-dione]
≥ 10000 | 2.5 | 88.8 | O=C1CCC(N2Cc3c(cc(F)c(C4CCN(Cc5cc(F)ccc5-n5cccn5)CC4)c3F)C2=O)C(=O)N1 (stereo not drawn) [Compound 47, 3-(4,6-difluoro-5-(1-(5-fluoro-2-(1H-pyrazol-1-yl)benzyl)piperidin-4-yl)-1-oxoisoindolin-2-yl)piperidine-2,6-dione]
≥ 10000 | 2.24 | 87.8 | Cc1cc(Br)cnc1CN1CCC(c2c(F)cc3c(c2F)CN(C2CCC(=O)NC2=O)C3=O)CC1 (stereo not drawn) [Compound 48, 3-(5-(1-((5-bromo-3-methylpyridin-2-yl)methyl)piperidin-4-yl)-4,6-difluoro-1-oxoisoindolin-2-yl)piperidine-2,6-dione]
≥ 10000 | 0.108 | 91 | O=C1CCC(N2Cc3c(cc(F)c(C4CCN(Cc5cccc(-n6cccn6)c5)CC4)c3F)C2=O)C(=O)N1 (stereo not drawn) [Compound 49, 3-(5-(1-(3-(1H-pyrazol-1-yl)benzyl)piperidin-4-yl)-4,6-difluoro-1-oxoisoindolin-2-yl)piperidine-2,6-dione]
≥ 10000 | 1.36 | 88.4 | O=C1CCC(N2Cc3c(cc(F)c(C4CCN(Cc5ncccc5Br)CC4)c3F)C2=O)C(=O)N1 (stereo not drawn) [Compound 50, 3-(5-(1-((3-bromopyridin-2-yl)methyl)piperidin-4-yl)-4,6-difluoro-1-oxoisoindolin-2-yl)piperidine-2,6-dione]
≥ 10000 | 0.097 | 92 | O=C1CCC(N2Cc3c(cc(F)c(C4CCN(Cc5ccc(C(F)F)cc5)CC4)c3F)C2=O)C(=O)N1 (stereo not drawn) [Compound 51, 3-(5-(1-(4-(difluoromethyl)benzyl)piperidin-4-yl)-4,6-difluoro-1-oxoisoindolin-2-yl)piperidine-2,6-dione]
≥ 10000 | 0.91 | 91.8 | O=C1CCC(N2Cc3c(cc(F)c(C4CCN(Cc5ccc(C(F)(F)F)cc5)CC4)c3F)C2=O)C(=O)N1 (stereo not drawn) [Compound 52, 3-(4,6-difluoro-1-oxo-5-(1-(4-(trifluoromethyl)benzyl)piperidin-4-yl)isoindolin-2-yl)piperidine-2,6-dione]
≥ 10000 | 0.727 | 93.3 | O=C1CCC(N2Cc3c(cc(F)c(C4CCN(Cc5ccc6ccccc6n5)CC4)c3F)C2=O)C(=O)N1 (stereo not drawn) [Compound 53, 3-(4,6-difluoro-1-oxo-5-(1-(quinolin-2-ylmethyl)piperidin-4-yl)isoindolin-2-yl)piperidine-2,6-dione]
≥ 10000 | 0.114 | 93.3 | O=C1CCC(N2Cc3c(cc(F)c(C4CCN(Cc5ccc6scnc6c5)CC4)c3F)C2=O)C(=O)N1 (stereo not drawn) [Compound 54, 3-(5-(1-(benzo[d]thiazol-5-ylmethyl)piperidin-4-yl)-4,6-difluoro-1-oxoisoindolin-2-yl)piperidine-2,6-dione]
≥ 10000 | 0.468 | 88.7 | O=C1CCC(N2Cc3c(cc(F)c(C4CCN(Cc5ccc(C(F)(F)F)cc5O)CC4)c3F)C2=O)C(=O)N1 (stereo not drawn) [Compound 55, 3-(4,6-difluoro-5-(1-(2-hydroxy-4-(trifluoromethyl)benzyl)piperidin-4-yl)-1-oxoisoindolin-2-yl)piperidine-2,6-dione]
≥ 10000 | 0.571 | 84.4 | Cc1nc(CN2CCC(c3c(F)cc4c(c3F)CN(C3CCC(=O)NC3=O)C4=O)CC2)c(C)o1 (stereo not drawn) [Compound 56, 3-(5-(1-((2,5-dimethyloxazol-4-yl)methyl)piperidin-4-yl)-4,6-difluoro-1-oxoisoindolin-2-yl)piperidine-2,6-dione]
≥ 10000 | 10.7 | 86.3 | O=C1CCC(N2Cc3c(cc(F)c(C4CCN(Cc5nc6ccccc6s5)CC4)c3F)C2=O)C(=O)N1 (stereo not drawn) [Compound 58, 3-(5-(1-(benzo[d]thiazol-2-ylmethyl)piperidin-4-yl)-4,6-difluoro-1-oxoisoindolin-2-yl)piperidine-2,6-dione]
≥ 10000 | 0.01 | 92.2 | O=C1CCC(N2Cc3c(cc(F)c(C4CCN(Cc5ccc6c(c5)OC(F)(F)O6)CC4)c3F)C2=O)C(=O)N1 (stereo not drawn) [Compound 59, 3-(5-(1-((2,2-difluorobenzo[d][1,3]dioxol-5-yl)methyl)piperidin-4-yl)-4,6-difluoro-1-oxoisoindolin-2-yl)piperidine-2,6-dione]
≥ 10000 | 0.691 | 91.8 | O=C1CCC(N2Cc3c(cc(F)c(C4CCN(Cc5ccc6c(c5)CCC6)CC4)c3F)C2=O)C(=O)N1 (stereo not drawn) [Compound 60, 3-(5-(1-((2,3-dihydro-1H-inden-5-yl)methyl)piperidin-4-yl)-4,6-difluoro-1-oxoisoindolin-2-yl)piperidine-2,6-dione]
≥ 10000 | 0.168 | 92.6 | CS(=O)(=O)c1ccc(CN2CCC(c3c(F)cc4c(c3F)CN(C3CCC(=O)NC3=O)C4=O)CC2)cc1 (stereo not drawn) [Compound 62, 3-(4,6-difluoro-5-(1-(4-(methylsulfonyl)benzyl)piperidin-4-yl)-1-oxoisoindolin-2-yl)piperidine-2,6-dione]
≥ 10000 | 2.11 | 92.9 | O=C1CCC(N2Cc3c(cc(F)c(C4CCN(Cc5cccc6ncsc56)CC4)c3F)C2=O)C(=O)N1 (stereo not drawn) [Compound 64, 3-(5-(1-(benzo[d]thiazol-7-ylmethyl)piperidin-4-yl)-4,6-difluoro-1-oxoisoindolin-2-yl)piperidine-2,6-dione]
≥ 10000 | 1.09 | 85.5 | CN(CCN1CCC(c2c(F)cc3c(c2F)CN(C2CCC(=O)NC2=O)C3=O)CC1)Cc1ccccc1 (stereo not drawn) [Compound 65, 3-(5-(1-(2-(benzyl(methyl)amino)ethyl)piperidin-4-yl)-4,6-difluoro-1-oxoisoindolin-2-yl)piperidine-2,6-dione]
≥ 10000 | 46.1 | 74.9 | Cc1cc(Br)cnc1C(=O)N1CCC(c2c(F)cc3c(c2F)CN(C2CCC(=O)NC2=O)C3=O)CC1 (stereo not drawn) [Compound 66, 3-(5-(1-(5-bromo-3-methylpicolinoyl)piperidin-4-yl)-4,6-difluoro-1-oxoisoindolin-2-yl) piperidine-2,6-dione]
≥ 10000 | 0.563 | 89 | O=C1CCC(N2Cc3c(cc(F)c(C4CCN(CC5CCCCC5)CC4)c3F)C2=O)C(=O)N1 (stereo not drawn) [Compound 67, 3-(5-(1-(cyclohexylmethyl)piperidin-4-yl)-4,6-difluoro-1-oxoisoindolin-2-yl)piperidine-2,6-dione]
≥ 10000 | 50.5 | 63.5 | Cc1cc(Br)cnc1CN1CCCC(c2c(F)cc3c(c2F)CN(C2CCC(=O)NC2=O)C3=O)C1 (stereo not drawn) [Compound 68, 3-(5-(1-((5-bromo-3-methylpyridin-2-yl)methyl)piperidin-3-yl)-4,6-difluoro-1-oxoisoindolin-2-yl)piperidine-2,6-dione]
≥ 10000 | 35.2 | 53.9 | O=C1CCC(N2Cc3c(cc(F)c(CNC(=O)c4cc5ccccn5c4)c3F)C2=O)C(=O)N1 (stereo not drawn) [Compound 69, N-[[2-(2,6-dioxo-3-piperidyl)-4,6-difluoro-1-oxo-isoindolin-5-yl]methyl]indolizine-2-carboxamide]

SMILES | DC50 (Helios) [nM] | DC50 [1] [nM] | Dmax [1] [%]
O=C1CCC(N2Cc3c(cc(F)c(C4(O)CCN(Cc5nc6ccccc6s5)CC4)c3F)C2=O)C(=O)N1 (stereo not drawn) [Compound 57, 3-(5-(1-(benzo[d]thiazol-2-ylmethyl)-4-hydroxypiperidin-4-yl)-4,6-difluoro-1-oxoisoindolin-2-yl)piperidine-2,6-dione] | ≥ 10000 | 101 | 63.2
